{"source": "paper PMC8868518", "about": "“Exploring Titanium(IV) Complexes as Potential Antimicrobial Compounds” (Antibiotics, 2022)", "key": {"[1]": {"tested_on": "MRC-5 cells", "experiment": "MRC-5 cell viability, dose-response treatment, MTT assay", "format": "cell-based, human", "settings": "MRC-5 cells, MTT, 72 h, pH 7.4, n = 6, this work"}, "[2]": {"settings": "pH 4; cited from earlier work"}, "[3]": {"tested_on": "HEK293 ATCC CRL-1573 human embryonic kidney cells", "experiment": "CO-ADD cytotoxicity assay (resazurin)", "format": "cell-based", "settings": "for antiproliferative effect against HEK293 (in words): all concentrations examined (0.25-32 μg/mL), 20 h, CC50 could not be measured"}, "[4]": {"tested_on": "human red blood cells", "experiment": "CO-ADD hemolysis assay", "format": "cell-based", "settings": "all concentrations examined (0.25-32 μg/mL), 1 h; HC10 and HC50 could not be measured", "procedure": "The compounds were used as received by the CO-ADD. For the screenings, most compounds were dissolved to a stock concentration of 10 mg/mL in DMSO. K2[Ti(Citrate)3], Na3Citrate, and K2[TiO(Oxalate)2] were dissolved in warm water. [Cu(Deferasirox)(H2O)]2 was dissolved in pyridine after its solubility was determined to be excellent in pyridine due to coordination of the solvent to the metal producing [Cu(Deferasirox)(pyridine)]2 in situ. […] Each sample concentration was prepared in 384-well plates, non-binding surface plate (NBS; Corning 3640) for each bacterial/fungal strain, tissue-culture treated (TC-treated; Corning 3712/3764), black for mammalian cell types and polypropylene 384-well (PP; […] All sample preparation was conducted using liquid handling robots. Human whole blood (Australian Red Cross) was washed three times with three volumes of 0.9% NaCl and resuspended in a concentration of 0.5 × 10^8 cells per mL, determined by manual cell count in a Neubauer hemocytometer. Washed cells were added to the compound-containing plates (384-well polypropylene plates (PP); Corning 3657) for a final volume of 50 μL, shaken and incubated for 1 h at 37 °C. […]"}, "[5]": {"tested_on": "MRC-5 cells", "settings": "cited from earlier work"}, "[6]": {"settings": "Homo sapiens, MRC5, read-out: IC50 ± SD"}, "[7]": {"settings": "Homo sapiens, MRC5, read-out: IC50 ± SD (µg/mL)"}}, "note": "Where a name gives a salt, the structure may show the parent alone. Read-outs that look alike come from different tables or passages of the source."}
{"compound": "O=C(O)CC(O)(CC(=O)O)C(=O)O", "note": "[Compound 1, Trisodium citrate, reference compound]", "values": [{"measurement": "IC50", "setting": "[1]; [6]", "result": "> 100", "unit": "µM"}, {"measurement": "IC50", "setting": "[1]; [7]", "result": "> 29.4", "unit": "µg/mL"}]}
{"compound": "Oc1cc2ccccc2cc1O", "note": "[Compound 2, 2,3-dihydroxynaphthalene, reference compound]", "values": [{"measurement": "IC50", "setting": "[1]; [6]", "result": "> 100", "unit": "µM"}, {"measurement": "IC50", "setting": "[1]; [7]", "result": "> 16", "unit": "µg/mL"}]}
{"compound": "O=C(O)c1ccccc1O", "note": "[Compound 6, salicylic acid, reference compound]", "values": [{"measurement": "IC50", "setting": "[1]; [6]", "result": "> 100", "unit": "µM"}, {"measurement": "IC50", "setting": "[1]; [7]", "result": "> 13.8", "unit": "µg/mL"}]}
{"compound": "[K+].[K+].c1ccc2cc3c(cc2c1)[O][Ti-2]12([O]3)([O]c3cc4ccccc4cc3[O]1)[O]c1cc3ccccc3cc1[O]2", "note": "[Compound 8, K2[Ti(Naphthalene-2,3-diolate)3]]", "values": [{"measurement": "solution stability (in words)", "setting": "[2]", "result": "highly stable in solution"}, {"measurement": "IC50 ± SD (µg/mL)", "setting": "[1]", "result": ">>65.5 µg/mL"}, {"measurement": "IC50", "setting": "[1]; read-out: IC50 ± SD", "result": "> 100", "unit": "µM"}, {"measurement": "antiproliferative effect against HEK293 (in words)", "setting": "[3]", "result": "inactive"}]}
{"compound": "O=C(O)c1ccc(-n2nc3nc2-c2ccccc2[O][Ti]2([O]c4ccccc4-3)[O]c3ccccc3-c3nc(n(-c4ccc(C(=O)O)cc4)n3)-c3ccccc3[O]2)cc1", "note": "[Compound 10, titanium(IV) bis(deferasirox)]", "values": [{"measurement": "solution stability (in words)", "setting": "[2]", "result": "highly stable in solution"}, {"measurement": "hemolysis of human red blood cells (in words)", "setting": "[4]", "result": "insignificant antiproliferative effect"}, {"measurement": "IC50 ± SD", "setting": "[5]", "result": "19.8 ± 0.8", "unit": "µg/mL"}, {"measurement": "IC50", "setting": "[5]; read-out: IC50 ± SD", "result": "25 ± 1", "unit": "µM"}, {"measurement": "antiproliferative effect against HEK293 (in words)", "setting": "[3]", "result": "insignificant antiproliferative effect"}]}
{"compound": "O=C([O-])C(=O)O.O=C([O-])C(=O)O.[K+].[K+].[O]=[Ti]", "note": "[Compound 14, Potassium dioxalatoxotitanate(IV) dihydrate]", "values": [{"measurement": "hemolysis of human red blood cells (in words)", "setting": "[4]", "result": "insignificant antiproliferative effect"}, {"measurement": "IC50 ± SD (µg/mL)", "setting": "[1]", "result": ">>35.4 µg/mL"}, {"measurement": "IC50", "setting": "[1]; read-out: IC50 ± SD", "result": "> 100", "unit": "µM"}, {"measurement": "antiproliferative effect against HEK293 (in words)", "setting": "[3]", "result": "insignificant antiproliferative effect"}]}
{"compound": "[Cu(Deferasirox)(H2O)]2 [Compound 15]", "values": [{"measurement": "IC50 ± SD", "setting": "[1]", "result": "7.70 ± 1.47", "unit": "µg/mL"}, {"measurement": "IC50", "setting": "[1]; read-out: IC50 ± SD", "result": "8.4 ± 1.62", "unit": "µM"}, {"measurement": "inhibition of HEK293 cell proliferation", "setting": "[3]; at the maximum concentration tested", "result": "~50", "unit": "%"}]}
